Consider five molecules from patent US20190241943A1, “RAPID PHENOTYPING AND IDENTIFICATION OF MICROBES FROM A COMPLEX MICROBIAL COMMUNITY” (Duke University, priority 2018, published 2019).

One test relates to gut bacteria. As to the kind of experiment: Xenobiotic growth screen of gut bacteria for beta-glucuronidases in droplets. Type of test: cell-based, human gut bacteria. The settings on record: defined media, glucose positive control, water negative control (FIG. 6). An excerpt:
Thus, in certain aspects of this disclosure, the methods of the invention can be used to identify or screen bacteria from the gut that can utilize, and thus inactivate, specific xenobiotic compounds. In certain embodiments of this aspect, the methods of the invention can be used to screen gut bacteria for beta-glucuronidases, which are present in bacteria that can inactivate certain man-made therapeutics. […] (FIG. 6). […] Thus, in some embodiments, the present disclosure provides for identification of bacterial taxa that contain putative beta-glucuronidases. Using the method disclosed herein, bacteria are isolated by encapsulation in droplets of defined media with or without a specific xenobiotic. DNA is sampled from the encapsulated droplets at one or more set time points during incubation, and absolute growth is then computed as previously disclosed herein. […] To determine gut bacterial strain response to xenobiotics, gut bacteria were screened for beta-glucuronidases, which are present in bacteria that can inactivate certain man-made therapeutics. […] (FIG. 6). […] Thus, the assay identified bacterial taxa that contain putative beta-glucuronidases. Glucose and water are positive and negative controls, respectively. (FIG. 6).

Test [1] relates to B. thetaiotamicron (ATCC strain 29148). The experiment in a line: Droplet monoculture growth on different carbon sources in defined medium (MicDrop). Type of test: cell-based, Bacteroides thetaiotaomicron. The note with it: for growth of the isolate in droplets compared to control defined medium without carbon source: B. theta isolate, defined medium with a single carbon source, endpoint DNA quantity (FIG. 4); for growth in droplets on carbohydrate (growth / no growth): B. thetaiotaomicron ATCC 29148 in microfluidic droplets, consistent with 96-well plates (FIG. 4). How it is done:
By using a defined media, a function of individual bacteria (in this case growth on a substrate of interest) can be determined. Bacteria were isolated from a fecal community of a healthy donor and cultured in defined medium. To identify carbon sources on which an individual isolated bacterium can grow, carbon sources of varying complexity were added individually to the defined media. Growth was measured at the endpoint, and the DNA was extracted, sequenced and quantified by qPCR as provided in Example 2. In this assay, the endpoint growth of an individual bacteria cultured in a defined medium with the addition of one carbon source was compared to the end point growth measurement of the same bacteria in the defined medium with only the addition of water. (FIG. 4). This comparison enables assessing the ability of an individual microbe to use a single carbon source for growth. As an example in FIG. 4, an isolate of the bacterial strain B. thetaiotamicron (ATCC® strain 29148) was cultured in droplets with defined medium containing the carbon source Pullalan, Levan, Lamanarin or no carbon source (control), and growth was compared. (FIG. 4). […] (FIG. 4). […] (FIG. 5).
(A) Microbial communities isolated from human stool samples were examined for carbon consumption in a custom microfluidic screen. Cells were restarted from frozen stock in mGAM (as above) and then minimal medium containing glucose and galactose (SIGMA®) as the sole carbon sources. Following determination of the loading concentration, the cell culture stocks were washed twice by centrifugation and resuspended in 2× minimal medium. Cells were filtered using a 50 μm filter (CELLTRICS®, SYSMEX®) to remove multi-cell clumps. The filtered cells suspension was then added to each sample formulation at the target concentration. Each sample was a 50:50 mixture of 1% carbon solution and 2× minimal medium. To prevent chip fouling, the oil inlet was equipped with 10 μm inline filters (P-276, IDEX®). Droplet generation in the anaerobic chamber was monitored using a bright field microscope (44347, CELESTRON®). Droplet cultures were stored 5 mL polypropylene tubes (352063, FALCON®) with the caps closed in an anaerobic incubator at 37° C. Following the second day of incubation, cultures were moved to a −20° C. freezer for storage prior to DNA extraction. Pre-processing of the droplet data designated samples with qPCR values below the mean no-carbon control as zero growth. Then, relative abundance data was converted to absolute abundance by multiplying each sample by the corresponding qPCR value. The median was then calculated across three replicate samples and matched no-carbon controls were subtracted from each sample. Finally, a growth threshold of 88% of maximum growth was applied, as determined from validation analysis (FIG. 15, Validation of prebiotic utilization assays)
To test whether the MicDrop method could be used to assay bacterial prebiotic metabolism (FIG. 12A), a previously characterized type strain Bacteroides thetaiotaomicron ATCC 29148 was loaded into microfluidic droplets and standard 96-well plates. Consistent with both prior studies and well-plate experiments disclosed herein, B. thetaiotaomicron ATCC 29148 grew in droplets on pullulan and levan, but not on lamanarin or a no carbohydrate control (FIG. 4). […] Using 96-well plate experiments as a reference (FIG. 12B, FIG. 18), the accuracy of the MicDrop prebiotic assay was determined to be 87% (Table 8). […]

Consider `O=C(O)[C@H]1O[C@@H](Oc2ccc([N+](=O)[O-])cc2)[C@H](O)[C@@H](O)[C@@H]1O` [PNPG, 4-Nitrophenyl-Beta-D-glucuronic acid, reference compound], for which the “bacterial growth on substrate” value in the test on gut bacteria is listed as “bacterial growth”.
For the molecule pullulan [Pullalan], in test [1], the “growth of the isolate in droplets compared to control defined medium without carbon source” value is on record as “greater growth” and the “growth in droplets on carbohydrate (growth / no growth)” value is recorded as “grew”.
Consider lamanarin, for which, in test [1], the “growth of the isolate in droplets compared to control defined medium without carbon source” value was “the same or slightly worse”.
As for `O=C[C@H](O)[C@@H](O)[C@H](O)[C@H](O)C(=O)O` [glucuronic acid], the “bacterial growth on substrate” value with gut bacteria was “bacterial growth”.
With levan, in test [1], the “growth of the isolate in droplets compared to control defined medium without carbon source” value was “greater growth” and the “growth in droplets on carbohydrate (growth / no growth)” value is “grew”.
